In the supplement of paper PMC10307832:

How the values were obtained:
Assay in all cases: relative viability (nuclei count vs DMSO), 5 days (fraction); higher = more cells survive
Zibotentan = compound: COc1nc(C)cnc1NS(=O)(=O)c1cccnc1-c1ccc(-c2nnco2)cc1 [Zibotentan]
Procedure, shortened: (§1)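 In 1536-well plates, lung cancer cell lines rested overnight at 37 °C before five library-drug doses (not always all listed), √10 apart, were pinned onto vehicle-anchored plates. Nuclei were counted with MetaXpress from 4× Hoechst images taken after 5 days without medium change. Viability compares treated-well with vehicle-well nuclei as a median over plates, and plates needed control CV below 25% plus at least one doubling to pass.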

[1] = compound: CCN(CC)CCCCNc1ncc2cc(-c3cc(OC)cc(OC)c3)c(NC(=O)NC(C)(C)C)nc2n1
Procedure, shortened: as §1

[2] = compound: C1COCCN1C2=CC(=O)C3=C(O2)C(=CC=C3)C4=CC=CC5=C4SC6=CC=CC=C56
Procedure, shortened: as §1

PRIMA-1MET = compound: COCC1(CO)C(=O)C2CCN1CC2 [PRIMA-1MET]
Procedure, shortened: as §1

[3] = compound: O=c1cc(-c2cccc3c2Sc2ccccc2S3)oc(N2CCOCC2)c1
Procedure, shortened: as §1

Cell Line | relative viability (Zibotentan; 0.08 µM) | relative viability (Zibotentan; 0.253 µM) | relative viability (Zibotentan; 0.8 µM) | relative viability (Zibotentan; 2.53 µM) | relative viability ([1]; 0.01 µM) | relative viability ([1]; 0.03162 µM) | relative viability ([1]; 0.1 µM) | relative viability ([1]; 0.3162 µM) | relative viability ([1]; 1 µM) | relative viability ([2]; 0.01 µM) | relative viability ([2]; 0.03162 µM) | relative viability ([2]; 0.1 µM) | relative viability ([2]; 0.3162 µM) | relative viability ([2]; 1 µM) | relative viability (PRIMA-1MET; 0.2 µM) | relative viability (PRIMA-1MET; 0.6325 µM) | relative viability (PRIMA-1MET; 2 µM) | relative viability (PRIMA-1MET; 6.325 µM) | relative viability (PRIMA-1MET; 20 µM) | relative viability ([3]; 0.08 µM) | relative viability ([3]; 0.253 µM) | relative viability ([3]; 0.8 µM) | relative viability ([3]; 2.53 µM) | relative viability ([3]; 8 µM)
NCI-H1792 | 0.998 | 0.763 | 0.879 | 0.943 | 0.979 | 0.976 | 1.04 | 1.25 | 0.521 | 0.939 | 0.99 | 0.908 | 0.91 | 0.868 | 0.923 | 0.804 | 0.677 | 0.924 | 0.778 | 0.904 | 1.06 | 0.783 | 0.864 | 0.863
NCI-H1793 | 0.938 | 0.862 | 0.801 | 1.03 | 0.903 | 0.933 | 1.03 | 0.944 | 0.683 | 0.888 | 0.786 | 0.918 | 0.896 | 0.806 | 0.936 | 0.815 |  | 1.08 | 0.923 | 0.819 | 1.3 | 0.857 | 0.771 | 0.805
NCI-H1915 | 1.06 | 0.986 | 0.973 | 1.01 | 1.08 | 1.04 | 1.02 | 1.12 | 1.01 | 1.04 | 1.08 | 1.06 | 0.995 | 1.05 | 0.954 | 0.859 | 0.734 | 1 | 0.957 | 0.988 | 1.02 | 1.13 | 0.993 | 1.04
NCI-H1944 | 1.07 | 0.94 | 0.874 | 1.01 | 0.945 | 0.875 | 1.06 | 0.985 | 0.894 | 1 | 1.01 | 1.02 | 0.997 | 0.949 | 1.06 | 0.782 | 0.695 | 0.927 | 0.924 | 0.938 | 1.09 | 0.905 | 0.752 | 1.09
NCI-H1975 | 0.966 | 0.882 | 0.892 | 1.01 | 0.993 | 0.87 | 1.01 | 1.2 | 0.882 | 0.941 | 0.985 | 0.866 | 0.97 | 1.04 | 1.05 | 0.937 | 0.847 | 1.04 | 0.753 | 0.907 | 1.12 | 0.836 | 0.936 | 0.966
NCI-H1993 | 0.966 | 0.871 | 0.913 | 1.04 | 0.976 | 0.924 | 1.05 | 1.45 | 0.901 | 0.882 | 0.931 | 1.1 | 0.995 | 0.84 | 1 | 0.767 | 0.824 | 0.92 | 0.955 | 0.84 | 1.05 | 0.846 | 0.824 | 0.826
NCI-H2009 | 1 | 0.968 | 1.07 | 1.06 | 1.05 | 1.06 | 1.04 | 1.07 | 0.979 | 1.02 | 0.995 | 1.01 | 0.982 | 0.927 | 0.944 | 0.976 | 1.03 | 1.04 | 0.0681 | 0.987 | 1.03 | 0.962 | 0.93 | 0.869
NCI-H2023 | 1.06 | 0.794 | 0.899 | 1 | 0.914 | 1.09 | 1.16 | 1.05 | 0.854 | 1.05 | 1.1 | 1.04 | 0.973 | 0.908 | 1.3 | 0.888 | 0.955 | 0.97 | 0.826 | 0.923 | 1.12 | 0.972 | 0.865 | 0.888
NCI-H2085 | 1.01 | 0.954 | 1.05 | 1.03 | 1.03 | 0.987 | 0.99 | 1.02 | 0.972 | 0.986 | 0.961 | 0.97 | 0.974 | 0.966 | 1.06 | 1 | 0.791 | 1.05 | 0.524 | 0.95 | 1.1 | 1.05 | 0.96 | 0.892
NCI-H2087 | 0.934 | 1.02 | 1.16 | 1.05 | 1.02 | 0.966 | 1.16 | 1.03 | 0.942 | 1.11 | 1.08 | 1.01 | 0.977 | 1.05 | 0.687 | 0.883 | 0.912 | 1.17 | 0.773 | 0.958 | 1.15 | 1.12 | 0.835 | 1.13
NCI-H2126 | 1.01 | 0.965 | 0.913 | 1.05 | 1.02 | 0.992 | 1.06 | 1.07 | 0.983 | 0.972 | 1 | 1 | 1.01 | 0.98 | 1.03 | 0.978 | 0.901 | 1.03 | 0.978 | 0.986 | 1.03 | 0.862 | 0.932 | 1.03
NCI-H2170 | 0.997 | 0.992 | 0.968 | 1 | 1.08 | 0.976 | 1.02 | 1.05 | 1 | 0.969 | 1.02 | 0.973 | 0.947 | 0.965 | 1.02 | 0.848 | 0.971 | 1.07 | 0.946 | 0.946 | 1.05 | 1 | 0.911 | 0.991
NCI-H2228 | 1.09 | 0.997 | 0.956 | 0.994 | 0.984 | 1.06 | 1.26 | 1.16 | 0.941 | 1.25 | 0.89 | 0.981 | 0.821 | 1.03 | 0.99 | 0.964 | 1.07 | 1.06 | 0.0562 | 1.04 | 1.09 | 1.02 | 1.07 | 1.1
NCI-H2342 | 0.937 | 0.945 | 0.944 | 0.942 | 0.932 | 0.899 | 0.971 | 1.09 | 1.06 | 1.01 | 1.04 | 0.955 | 0.959 | 0.875 | 1.07 | 1.05 | 0.693 | 0.974 | 0.915 | 0.836 | 1.07 | 0.964 | 0.982 | 1.04
NCI-H2347 | 1.04 | 0.95 | 1.12 | 1.06 | 0.998 | 1.01 | 1.12 | 1.15 | 0.931 | 1.11 | 0.979 | 0.957 | 0.981 | 0.988 | 0.961 | 0.959 | 0.779 | 1.11 | 1.02 | 0.96 | 1.07 | 1.1 | 1.13 | 1.13
NCI-H2405 | 1.06 | 0.942 | 1.03 | 1.09 | 0.988 | 1.03 | 1.13 | 1.08 | 0.982 | 1.03 | 0.906 | 1.03 | 1.1 | 0.958 | 0.881 | 0.972 |  | 0.952 | 0.509 | 0.958 | 0.998 | 0.979 | 0.878 | 1.14
NCI-H3122 | 1.02 | 1.01 | 0.978 | 0.98 | 1.02 | 1.04 | 1.07 | 1.1 | 0.967 | 1.01 | 0.988 | 1.01 | 0.961 | 1.01 | 0.85 | 0.972 | 0.948 | 1.01 | 1 | 1.01 | 1.02 | 1.03 | 1.03 | 1.08
PC-3 [JPC-3] | 1.06 | 0.979 | 1.05 | 1.06 | 1.1 | 1.02 | 1.12 | 1.23 | 0.911 | 0.965 | 1.01 | 0.91 | 1.03 | 0.977 | 1.16 | 1 | 0.997 | 1.07 | 0.997 | 0.99 | 1.05 | 1.02 | 0.943 | 1.08
PC-14 | 1.04 | 0.873 | 1.05 | 1.02 | 1.09 | 1.06 | 1.18 | 1.25 | 0.966 | 0.936 | 0.993 | 0.981 | 1.09 | 0.971 | 1.06 | 0.956 | 0.944 | 1.05 | 0.688 | 1.02 | 1.18 | 0.981 | 0.87 | 1.06
RERF-LC-KJ | 1.02 | 0.925 | 0.904 | 1.03 | 1.02 | 1.11 | 1.04 | 1.06 | 0.978 | 0.992 | 0.974 | 1.03 | 0.949 | 0.956 | 1.11 | 1.01 | 1.06 | 1.12 | 0.952 | 0.932 | 1.09 | 1.03 | 0.968 | 0.929
SK-LU-1 | 1.01 | 1.04 | 1.02 | 1.08 | 1.05 | 0.991 | 1.24 | 1.27 | 0.952 | 1.05 | 1.13 | 0.92 | 1.07 | 1.04 | 1.16 | 1.06 | 0.801 | 1.13 | 0.837 | 1.14 | 1.14 | 1.3 | 0.97 | 1.13
SK-MES-1 | 1.01 | 0.911 | 0.955 | 1.07 | 1.09 | 1.07 | 1.08 | 1.08 | 1.01 | 1 | 1 | 0.999 | 0.988 | 0.934 | 1.1 | 1 | 0.993 | 1.09 | 0.98 | 1 | 1.16 | 0.927 | 0.933 | 0.928
SW 900 | 0.918 | 0.75 | 0.851 | 0.921 | 0.907 | 1.11 | 0.804 | 1.02 | 0.717 | 0.793 | 0.811 | 0.721 | 0.942 | 0.853 | 0.984 | 0.757 | 0.637 | 0.804 | 0.0765 | 0.622 | 0.892 | 0.942 | 0.809 | 0.774
SW 1573 | 1.03 | 0.707 | 1.08 | 1.09 | 0.932 | 1.01 | 1.09 | 1.02 | 0.906 | 0.981 | 0.998 | 0.985 | 0.952 | 0.938 | 1.11 | 0.787 | 0.87 | 0.246 | 0.0301 | 0.965 | 1.1 | 1 | 0.949 | 1.1
UMC-11 | 1.01 | 1.01 | 0.951 | 0.978 | 1.03 | 0.915 | 1.01 | 1.01 | 0.98 | 0.986 | 0.952 | 0.982 | 1.02 | 0.989 | 1.05 | 0.887 | 0.848 | 0.97 | 0.944 | 0.998 | 1.18 | 1.09 | 0.916 | 1.25
